In one experiment the test system is Sprague-Dawley rats. The experiment is described as follows: Forced Swim Test in rats. The class given is in vivo, rat. The protocol: In this assay, mechanisms with purported antidepressant-like activity decrease immobility in a brief inescapable forced swim episode.
The forced-swim test is conducted with both mice (male, NIH-Swiss mice, 20-25 g, Harlan Sprague-Dawley, Indianapolis, Ind.) and rats (male, Sprague-Dawley rats, 250-350 g, Harlan Sprague-Dawley, Indianapolis, Ind.). Mice are placed in clear plastic cylinders (diameter 10 cm; height: 25 cm) filled to 6 cm with 22-25° C. water for six min. The duration of immobility is recorded during the last 4 min of a six-minute trial. Rats are treated similarly, albeit in clear plastic cylinders of larger dimensions (diameter: 18 cm; height: 40 cm) filled with water (22-25° C.) to a depth of 16 cm for 15 min. Additionally, mice receive a single forced swim exposure; rats receive two, 5-min sessions separated by 24 hours (data is recorded only on Day 2). The compound of Example 1 is tested in mice using intraperitoneal dosing (1, 3, or 10 mg/kg), 60 min prior to testing. […] Example 2 is administered 5 min following the first forced swim exposure and 120 min prior to the test session on Day 2. Imipramine is used as a positive control for these studies. Compounds are formulated in a water vehicle, with minimal NaOH being added to Example 1 and Example 2. Compounds are in a clear solution. The amount of time spent immobile (defined as movements only necessary to keep the subject's head above water) is the dependent measure and recorded by an observer blinded to the drug treatment of the subjects. Data are analyzed by post-hoc Dunnett's test with alpha level set at 0.05. The mouse version of the forced swim test is most commonly used. An ED60 value (60% of the amount of immobility relative to vehicle controls) is calculated to estimate potency of the test compounds.

A further experiment addresses T1, hPepT1 (Homo sapiens, UniProt P46059).
T1 construct: expressed in transfected cells; host or cells: HeLa cells (ATCC), transient transfection with FuGene6
T1 sequence (P46059 1-708): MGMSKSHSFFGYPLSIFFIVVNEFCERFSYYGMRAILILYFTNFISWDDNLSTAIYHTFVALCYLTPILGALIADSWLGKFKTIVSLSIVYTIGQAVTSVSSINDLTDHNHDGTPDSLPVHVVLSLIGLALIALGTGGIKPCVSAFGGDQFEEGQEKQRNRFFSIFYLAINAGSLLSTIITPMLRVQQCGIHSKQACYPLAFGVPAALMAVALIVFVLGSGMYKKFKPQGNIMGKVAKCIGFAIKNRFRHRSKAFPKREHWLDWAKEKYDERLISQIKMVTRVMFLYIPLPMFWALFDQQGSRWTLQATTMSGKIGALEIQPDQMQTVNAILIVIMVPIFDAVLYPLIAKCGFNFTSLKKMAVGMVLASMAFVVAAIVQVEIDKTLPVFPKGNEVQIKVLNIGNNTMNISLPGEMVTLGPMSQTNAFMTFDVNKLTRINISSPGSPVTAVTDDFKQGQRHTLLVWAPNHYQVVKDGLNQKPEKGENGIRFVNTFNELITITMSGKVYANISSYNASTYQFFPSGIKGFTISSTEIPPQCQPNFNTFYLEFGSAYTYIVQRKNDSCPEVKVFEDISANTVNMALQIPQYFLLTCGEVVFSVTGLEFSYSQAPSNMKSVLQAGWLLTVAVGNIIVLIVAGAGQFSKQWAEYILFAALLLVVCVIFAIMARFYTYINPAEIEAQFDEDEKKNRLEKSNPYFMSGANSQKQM
Put plainly: In Vitro PepT1 GlySar Inhibition Screen and IC50 Determination. Type of experiment: cell-based. As for the experimental part:
PepT1 assays are established to examine the ability of the amino acid prodrug compounds to interact with the intestinal absorption transporter PepT1.
HeLa cells, […], (American Type Culture Collection) are grown in Hyclone Medium (Invitrogen, Cat# SH30243) containing 10% fetal bovine serum (FBS), 0.1 mM non essential amino acids (NEAA), and 100 units/mL penicillin with 100 μg/mL streptomycin at 37° C. in a 5% CO2 humidified atmosphere. The cell line is used for up to 40 passages and then discarded. Frozen cells in 1 ml vials are thawed in water bath for 1-2 minutes and added to 5 mL of cell medium at 37° C. Each of the T-flasks is provided with 8.5 mL of the fresh medium and 1.5 mL of the cell stock. Cells are passaged twice during a week. This is achieved by rinsing the flasks with 10 mL of phosphate buffered saline-ethylene diaminetetra acetic acid (PBS-EDTA), adding 2 mL of trypsin for 2-5 minutes, to detach the cells, and adding 8 mL of fresh medium to inhibit further activity of trypsin. Each new flask receives a combination of 8.5 mL of fresh medium and 1.5 mL of cell stock, in order to obtain 1:6 cell dilution. Cells are incubated at 37° C., until ready for the uptake study.
Cells that are 70-80% confluent in the T-flasks are plated 1 day prior to the transfection procedure. The flask with the cell stock is treated with PBS-EDTA and trypsin to detach the cells, and transfection medium is used from this point. Transfection medium consists of Dulbecco's Modified Eagle Medium (DMEM)+NEAA. To each well, 0.5 mL of the cell mixture is added (1.3×10^5 is the desired cell concentration) and the cells are incubated at 37° C. overnight. Twenty four hours before the assay, cells are transfected with PEPT1. Transfection mixture is prepared by mixing 600 μL of serum free transfection medium, 18 μL of FuGene6 (Roche Diagnostics), and 11 μg of the PepT1 DNA. The transfection reagent-DNA complex is incubated for 20 minutes and 24 μL of the reagent-DNA complex is added to each well.
J. Pharm. Exper Ther. 310:437-445). […] Uptake media consists of 140 mM NaCl, 5.4 mM KCl, 1.8 mM CaCl2, 0.8 mM MgSO4, 5 mM Glucose, 25 mM tris(hydroxymethyl)aminomethane buffer (TRIS). The solution is then brought to pH 6.0 using 2-(N-morpholino)ethanesulfonic acid. The incubation volume is 500 μL and is performed at room temperature for 3 minutes. To stop the uptake at the conclusion of the incubation time, the uptake media is aspirated off of the cell monolayer and 500 μL of ice cold PBS added to the well. The cells are washed 3 times with 500 μL of room temperature PBS without Ca^+2 and Mg^+2. The cells are then lysed with 300 μL of 1% Triton X100 H2O solution. […] A no inhibitor control is established and the percent inhibition of each prodrug is calculated with respect to this control.
The incubation and sampling procedures are exactly the same as the PepT1 screen described above. […]

The values below come from patent US8318184B2, “MGLU2 agonists” (Eli Lilly and Company, priority 2009, dated 2012).

A word on the inhibition: it is the change of the read-out against control, counted positive when it falls. What is called IC50 is the concentration that gives 50% inhibition. For `C[C@H](N)C(=O)N[C@@]1(C(=O)O)C[C@@H](Sc2nnc[nH]2)[C@H]2[C@H](C(=O)O)[C@H]21.Cl` [Example 2, (1R,2S,4R,5R,6R)-2-[[(2S)-2-Aminopropanoyl]amino]-4-(1H-1,2,4-triazol-3-ylsulfanyl)bicyclo[3.1.0]hexane-2,6-dicarboxylic acid hydrochloride], in the experiment on Sprague-Dawley rats (oral dosing), the “maximal effect, immobility as % of vehicle-treated rats” value is listed as 68%. The immobility time entry in the experiment on Sprague-Dawley rats (oral, following dosing with 4.1 and 13.8 mg/kg, F(4,29)=14.72, p<0.0001) is given as “significantly decreased immobility time”. For the same compound, the inhibition at 5000 µM on hPepT1 (5 mM, pH 6.0, PepT1 transiently transfected HeLa cells, read-out: hPepT1 [3H]Gly-Sar uptake inhibition at 5 mM) was 38%. Further, the IC50 on hPepT1 (0.0625 to 25 mM, PepT1 transfected HeLa cells, read-out: hPepT1 [3H]Gly-Sar uptake inhibition IC50) came to 1840 µM.
